Source: patent publication US20260355239A1, “COMBINATION OF A T CELL THERAPY AND CONTINUOUS OR INTERMITTENT DGK INHIBITOR DOSING” (Juno Therapeutics, Inc., priority 2022, published 2026)

Columns and labels:
CAR-expressing T cells = assay: Chronic stimulation assay, concurrent treatment: tumor cell numbers, spheroid volume and cytokines during re-challenge of CAR-expressing T cells (FIGS. 5A-6B); type: cell-based, human
Description: FIGS. 5A-5B and 6A-6B show cytolytic activity and cytokine production during re-challenge of CAR-expressing T cells chronically stimulated in the presence of Compound 17 (concurrent treatment).
These observations were made using a chronic stimulation assay to render T cells (e.g. CAR T cells) hypofunctional (e.g. reduced cytolysis and IL-2 secretion). Using this model, engineered T cells (e.g. CAR T cells or eTCR T cells) were examined to assess impact of DGKi, such as Compound 17, on function of the engineered T cells when present during (concurrent) or following (rescue) exposure to conditions leading to a hypofunctional, exhaustive state.

anti-CD19 CAR-T cells = assay: CAR-T cell viability; type: cell-based, human; conditions: acute stimulation assays
Description: T cell compositions containing T cells expressing an exemplary anti-CD19 CAR were generated from leukapheresis samples from two healthy human adult donors by a process that included immunoaffinity-based selection of T cells by separately selecting CD4+ and CD8+ cells from the samples, resulting in two compositions enriched for CD4+ and CD8+ cells, respectively, per donor. Cells of the enriched CD4+ and CD8+ compositions were separately activated with anti-CD3/anti-CD28 beads and subjected to lentiviral transduction with a vector encoding an anti-CD19 CAR. […]
Prior to use, the cryopreserved CD4+ and CD8+ CAR-engineered cell compositions were thawed and combined at approximately a 1:1 CD4:CD8 ratio for each donor to prepare a combined CD4+ CAR+ and CD8+ CAR+ T cell composition. The effects of treatment with Compound 17 at various concentrations (0.1 nM, 1 nM, 10 nM, 100 nM, or 1000 nM) added at day 0 during stimulation of the combined CAR-T cell composition with a plate-bound CAR-specific anti-idiotypic antibody (see, e.g., WO2018/023100) or during co-culture with CD19-expressing cells was then assessed.

[1] = test system: anti-CD19 CAR-T cells with A549.CD19 and Granta-519 tumor spheroids; assay: Cytokine production of chronically stimulated, concurrently treated CAR-T cells, 3D spheroids; type: cell-based, human; conditions: concurrent treatment during chronic stimulation, five days
Experimental: To simulate conditions of chronic stimulation, approximately 20,000 anti-CD19 CAR-expressing T cells of a combined CAR-T cell composition produced as described in Example 2 from two healthy adult donors were incubated with 30 µg/mL of plate-bound CAR-specific anti-idiotypic antibody (see, e.g., WO2018/023100) at 37 °C for a period of seven days. During this seven-day period, engineered CAR T cells were concurrently treated with Compound 17(0.1-1000 nM) or a vehicle control added at day 0.
To further assess activity of chronically stimulated cell, the chronically stimulated CAR-T cells that had been concurrently treated with DGKi were incubated with A549 CD19+ tumor spheroids or Granta-519 tumor spheroids to rechallenge the CAR-T cells at an effector to target ratio of 1:2 for up to 14 days. The tumor spheroids were engineered to express a red fluorescent dye to permit monitoring of tumor cell lysis by microscopy during the assay.
Supernatant was collected at day 5 from the above tumor spheroid cultures with chronically stimulated CAR-expressing T cells. Cytokine production was measured from the supernatant by meso scale discovery (MSD) analysis of the collected cell supernatants. […] Duplicate values for cell compositions manufactured from the two different healthy donors are shown.

K562.CD19 cells = assay: Rescue treatment: cytolytic activity of chronically stimulated CAR-T cells, 2D, K562.CD19; type: cell-based, human; conditions: higher concentrations, 2D co-culture
[2] = test system: anti-CD19 CAR-T cells with A549.CD19 and Granta-519 tumor spheroids; assay: Rescue treatment: cytokine production of chronically stimulated CAR-T cells, 3D spheroids; type: cell-based, human; conditions: 3D spheroid co-culture, five days
Experimental: Anti-CD19 CAR-expressing T cells, produced as described in Example 2, were chronically stimulated with plate-bound CAR-specific anti-idiotypic antibody for seven days as described in Example 3, but in the absence of Compound 17 during chronic stimulation. Instead, chronically stimulated CAR T cells were treated with Compound 17 during re-challenge with CD19-expressing tumor cells, after which cytolytic activity and cytokine production were assessed.
Cytolytic activity also was assessed in CD19-expressing tumor spheroid cultures incubated with chronically stimulated CAR-T cells in the presence of DGKi. A549 CD19+ tumor spheroids or Granta-519 tumor spheroids were incubated with the anti-CD19 CAR-expressing T cells at an effector to target ratio of 1:2 for up to 14 days in the presence of DGKi (0-1000 nM). The tumor spheroids were engineered to express a red fluorescent dye to permit monitoring of tumor cell lysis by microscopy during the assay. Cytolytic activity was assessed by monitoring fluorescence over time, and the tumor volume (normalized to time zero) was measured as the number of red calibrated units (RCU)×μm^2 area. […]
Supernatant was collected at day 5 from the above tumor spheroid cultures with chronically stimulated CAR-expressing T cells. Cytokine production was measured from the supernatant by meso scale discovery (MSD) analysis of the collected cell supernatants. […]

eTCR T cells = assay: Rescue treatment: proliferation of chronically stimulated eTCR T cells on re-stimulation; type: cell-based, human; conditions: 100 nM, 7 day re-stimulation with 20 μg/mL anti-Vbeta
Description: Primary human CD4+ and CD8+ T cells were isolated from healthy donors by immunoaffinity-based methods. The isolated CD4+ and CD8+ T cells were combined and stimulated with an anti-CD3/anti-CD28 reagent, and then were transduced with a lentiviral vector encoding an anti-human papillomavirus 16 (anti-HPV16) eTCR. The nucleotide sequences encoding the beta chain and the alpha chain of the eTCR were separated by a sequence encoding a 2A ribosome skip element. Following transduction, the cells were cultured in media containing human serum and cytokines for 9-10 days prior to further assessment.
In another experiment to assess activity of the DGKi to rescue or reverse exhaustion, eTCR T cells were chronically stimulated for 6 days as described above in the absence of Compound 17. Then, chronically stimulated eTCR T cells or freshly thawed eTCR T cells that had not been chronically stimulated were re-stimulated with 20 μg/mL plate-bound antibody against the Vbeta chain of the eTCR in the presence of 100 nM Compound 17 for 7 days. As a control, chronically stimulated eTCR T cells were re-stimulated in the absence of Compound 17 for 7 days. At the end of the 7 day re-stimulation, cell counts were determined.

[3] = test system: Nalm6 leukemia tumor cells; assay: In vivo anti-tumor effect with CAR T cells, Nalm6-rFluc NSG mice (Example 10)
Experimental: The in vivo anti-tumor effects of a continuous Compound 17 dosing regimen in combination with anti-CD19 CAR T cells were assessed in a second CD19-expressing tumor model.

[4] = 0.3 mg/kg oral once daily Days 1-30 with 1×10^6 CAR T cells, vs CAR T cells or Compound 17 alone

CC[C@H]1CN([C@@H](CC)c2ccc(C(F)(F)F)cc2)[C@H](CC)CN1c1nc(=O)n(C)c2ccc(C#N)nc12 [Compound 17, 4-((2S,5R)-2,5-diethyl-4-((S)-1-(4-(trifluoromethyl)phenyl)propyl)piperazin-1-yl)-1-methyl-2-oxo-1,2-dihydropyrido[3,2-d]pyrimidine-6-carbonitrile]
effect of concurrent treatment on hypofunctionality upon rechallenge with antigen (CAR-expressing T cells): reversed activity and phenotypes associated with T cell hypofunctionality and preserved more effector function | T cell viability (anti-CD19 CAR-T cells): no impact of Compound 17 on T cell viability was observed | production of IFNγ, IL-2 and TNFα [1]: dose-dependent increase in production of all three cytokines | cytolytic activity of CAR T cells against K562.CD19 cells (K562.CD19 cells): improved the cytolytic activity of CAR T cells against K562.CD19 and Granta-519 cells | production of IFNγ, IL-2 and TNFα [2]: dose-dependent increase in production of all three cytokines | proliferation of chronically stimulated eTCR T cells (cell counts) (eTCR T cells): increased proliferation of the eTCR T cells | CAR T cell expansion and/or persistence ([3]; 0.3 mg/kg oral once daily Days 1-30 following CAR T cells): increased CAR T cell expansion and/or persistence | survival [3, 4]: improved survival | tumor burden [3, 4]: lowered tumor burden | tumor suppression (tumor control index) ([3]; 0.3 mg/kg with CAR T cells, vs CAR T cells alone): enhanced tumor suppression | tumor burden vs historical CAR T cell data ([3]; 0.3 mg/kg with CAR T cells, vs separate previous experiments without Compound 17): lower tumor burden than the mice in the separate previous experiments | single-agent effects ([3]; 0.3 or 0.6 mg/kg oral once daily Days 1-30, without CAR T cells): No single-agent effects of Compound 17 were observed
